Results as given in publication PMC5325331, “A steroid like phytochemical Antcin M is an anti-aging reagent that eliminates hyperglycemia-accelerated premature senescence in dermal fibroblasts by direct activation of Nrf2 and SIRT-1” (Oncotarget, 2016).

Tests used:
[1] = tested on: C. elegans wild type Bristol N2; test: Stress-resistance assay (Juglone) in C. elegans; type: in vivo, Caenorhabditis elegans; settings: pretreatment 10 μM for 3 days, then Juglone 250 μM for 2.5, 3.5 and 4.5 h
Method: The wild type Bristol N2 strain was used in this study. C. elegans and Escherichia coli OP50 strain were obtained from the Caenorhabditis Genetic Center, University of Minnesota (Minneapolis-St. Paul, MN). Worms were maintained at 20°C on nematode growth medium (NGM). Hatched worms (L1-stage larvae) were transferred to fresh agar plates and cultured with E. coli OP50 as a food source until they reached the L4 larvae stage. Synchronization of worm cultures was achieved by hypochlorite treatment of gravid hermaphrodites.
Age synchronized L1 larvae were incubated with liquid S-basal medium containing E. coli OP50 at a density of 1 × 10^9 cells. Ml and 10 and 20 μM ANM or 0.01% DMSO (vehicle control) for 3 days. Subsequently, adult worms were subjected to oxidative stress assay. To induce oxidative stress, worms were incubated with Juglone (5-hydroxyl-1,4-naphthoquinone; Sigma), an ROS-generating agent. ANM treated and control worms were transferred to S-basal medium containing 250 μM Juglone, and incubated from 2.5, 3.5 and 4.5 h. After treatment, viable worms were scored. […] The test was performed triplicate.

HUVECs [2] = test: Intracellular ROS by DCF fluorescence assay in HUVECs; type: cell-based, human; settings: ANM 10 μM with HG (30 mM) for 48 h; HG alone 14.3-fold
Method: Cell viability was dermined by MTT assay. Percentage of viable cells were normalized with control cells (NG). B. Cellular senescence was determined by SA-β-gal activity assay as descrided in Materials and Methods. C., D. Total cell lysate was extracted and senescence-associated marker proteins including p16INK4A, p21CIP1, total and acetylated p53 and FoxO1 were measured by western blot analysis. E. Protein expression levels of SIRT-1 and phos-SIRT-1 were monitored by immunoblotting. […] The intracellular ROS level was quantified by utilizing DCFH-DA assay. G. Western blot analysis was performed to determine the protein expression levels of HO-1 and NQO-1. […] Cell lysates were mixed with luciferase reagents and quantified using an illuminometer. Relative ARE promoter activity was calculated by dividing the relative luciferace unit (RLU) of treated cells by RLU of untraeated cells (NG). Results expressed as mean ± SEM of three indipendent expriments. Statistical significance at ^ФP < 0.05 compared to NG vs. HG and *P < 0.05 compared to HG vs. samples.

[3] = tested on: p16INK4A, p21CIP1 and SMP30; test: Western blot of senescence-associated marker proteins in HG-induced HNDFs; type: cell-based, human; settings: 10 μM with HG (30 mM) for 72 h, immunoblotting
Method: Cells were lysed by either RIPA lysis buffer or nuclear and cytoplasmic extraction reagents (Thermo Fisher Scientific). Protein concentrations were determined by Bio-Rad protein assay reagent (Bio-Rad Laboratories, Hercules, CA). Equal amounts of protein samples (60 μg) were separated by 7-12% SDS-PAGE and the separated proteins were transferred onto polyvinylidene […] (PVDC) membrane overnight. The transferred protein membranes were blocked with 5% non-fat dried milk for 30 min, followed by incubation with specific primary antibodies overnight, and either horseradish peroxidase-conjugated goat anti-rabbit or anti-mouse antibodies for 2 h. The blots were detected using VL Chemi-Smart 3000 (Viogene Biotek, Sunnyvale, CA) with the enhanced chemiluminescence (ECL) western blotting reagent (Millipore, Billerica, MA).

[4] = tested on: Nrf2 transcriptional activity (ARE promoter); test: ARE luciferase reporter assay in HNDFs; type: cell-based, human; settings: 6 h
Method: ARE promoter activity was measured using a dual-luciferase reporter assay system (Promega, Madison, WI). […] Cells were then transfected with ARE plasmid (Qiagen, Hilden, Germany) using Lipofectamine 2000 (Invitrogen) and incubated for 36 h. […] The cell lysate was prepared and incubated with luciferase agents and the relative luminescence intensity was quantified using a spectrophotometer (Hidex Oy, Turku, Finland).

HUVECs [5] = test: Cell viability of HUVECs (MTT assay); type: cell-based, human; settings: ANM 10 μM or RES 5 μM for 48 h
Method: Human normal dermal fibroblasts ([…]) and human umbilical vein endothelial cells (HUVECs) were obtained from the Bioresource Collection and Research Center (BCRC), Hsinchu, Taiwan. […] Likewise, HUVECs were grown in M-199 medium supplemented with ECGS, heparin, 10% FBS and 100 U/mL penicillin and streptomycin at 37°C in a fully humidified atmosphere of 5% CO2. High-glucose treatment was performed by treating cells with 15 or 30 mM D-glucose (HG) for 24-72 h. […] Cell viability was assessed by MTT colorimetric assay. […] After treatment with HG (15 and 30 mM) in the presence or absence of samples for 24-72 h, culture media was withdrawn and incubated with MTT (1 mg/mL) in fresh medium for 2 h. The MTT formazan crystals were dissolved in 400 μL of DMSO and the samples were measured at 570 nm […] using an ELISA microplate reader (Bio-Tek Instruments, Winooski, VT). The percentage of cell viability (%) was calculated as (A570 of treated cells/A570 of untreated cells) × 100.

HUVECs [6] = test: SA-β-gal senescence assay in HG-treated HUVECs; type: cell-based, human; settings: ANM 10 μM with HG (30 mM) for 48 h; HG alone 6.38-fold
Method: Senescence-associated β-galactosidase (SA-β-gal) activity was determined in formaldehyde-fixed histochemical staining kit according to the manufacturer's instructions (Cell Signaling Technology, Danvers, […]). Briefly, cells were grown in 6-well plates at a density of 5 × 10^4 cells/well, and incubated with HG or test samples for 48 h (HUVECs) or 72 h (HNDFs). After incubation, cells were stained with SA-β-gal staining solution at pH 6.0 overnight and then the development of blue staining was observed and photographed under a bright-field microscope (Motic Electric Group, Xiamen, P.R. China).

[7] = Cell-free DPPH free-radical scavenging assay
Method: Therefore, next to determine whether ANM acts directly as a free-radical scavenger, we performed a cell-free DPPH free-radical scavenging assay.
Figure 5 Antcin M activates Nrf2-dependent anti-oxidant defense in HNDFs A. To determine the free-radical scavenging effect of ANM, cell-free DPPH assay was performed. […] Results expressed as mean ± S.E.M of three indipendent expriments.

HO-1 and NQO-1 mRNA = test: Q-PCR of anti-oxidant genes in HNDFs; type: cell-based, human; settings: ANM 10 μM, 12 h
Method: Total RNA was extracted from cultured HNDFs using Trizol Reagent (Thermo Fisher Scientific). Q-PCR analysis was performed using Applied Biosystems detection instruments and software. Forward and reverse primers (10 μM), and the working solution SYBR green, was used as a PCR master mix, under the following conditions: 96°C for 3 minutes followed by 40 cycles at 96°C for 1 minute, 50°C for 30 seconds and 72°C for 90 seconds. GAPDH was used as an internal standard to control for variability in amplification because of differences in starting mRNA concentrations. The copy number of each transcript was calculated as the relative copy number normalized by GAPDH copy number.

## C=C(CCC(C)C1CCC2C3=C(C(=O)C(O)C21C)C1(C)CCC(O)C(C)C1CC3)C(C)C(=O)O (stereo not shown) [ANM, antcin M]
[1]
  survival rate of worms exposed to oxidative stress: significantly increased the survival rate
HUVECs [2]
  intracellular ROS levels: 6.1 fold
[3]
  HG-induced upregulation of p16INK4A and p21CIP1 proteins: significantly downregulated
  SMP30 protein expression: rescued HG-induced SMP30 depletion
[4]; ANM 10 μM or NAC 100 μM alone, control 1-fold
  ARE luciferase activity: 5.8 fold
[4]; co-treated with HG (30 mM), ANM 10 μM or NAC 100 μM, HG alone 2.5-fold
  ARE luciferase activity: 8.5 fold
HUVECs [5]
  cell viability of HUVECs, treatment alone: did not affect cell viability
HUVECs [6]
  SA-β-gal staining (endothelial senescence): 1.36 fold
[7]
  free-radical scavenging in the cell-free system: failed to scavenge free radicals
HO-1 and NQO-1 mRNA
  mRNA levels of HO-1 and NQO-1: significantly increased
